As a reminder, the MIC is the least concentration at which growth counts as inhibited. Higher therefore signals a less susceptible organism.

MIC data for seven compounds are collected here from DBAASP.

Values after ≈ are worked out from the molar mass of the structure shown.

Test systems include Staphylococcus aureus MR; Candida albicans; Escherichia coli; Pasteurella multocida; Bacillus cereus C737; Bacillus cereus; Micrococcus luteus; Listeria innocua; Escherichia coli UB1005; Staphylococcus aureus 15; Streptococcus uberis; Staphylococcus aureus; Leuconostoc lactis.
What all share (experiment): ≥ marks a high value that may be exact or a test limit, other limits are often not marked, values filed in µg/mL are converted to µM
The subject of assay [1] is Pseudomonas aeruginosa ATCC 27853.
The test system of assay [2] is Pseudomonas aeruginosa 15159.
The subject of assay [3] is Staphylococcus aureus 2844.
Assay [4] deals with Staphylococcus aureus ATCC 29213.
Assay [5] has as its system Staphylococcus aureus FDA 486.
The test system of assay [6] is Staphylococcus aureus ATCC 49476.
Assay [7] relates to Escherichia coli NCTC 10418.
In assay [8] the test system is Staphylococcus aureus NCTC 12981.
For assay [9], the system named is Enterococcus faecalis NCTC 12201.
The test system of assay [10] is Enterococcus faecalis NCTC 775.
The subject of assay [11] is Klebsiella pneumoniae NCTC 13368.
In assay [12] the test system is Candida albicans NCPF 3179.
Assay [13] has as its system Staphylococcus epidermidis.
The test system of assay [14] is Escherichia coli NCTC 12923.
In assay [15] the test system is Staphylococcus aureus ATCC 9144.
The test system of assay [16] is Pseudomonas aeruginosa PAO1.
Assay [17] concerns Pseudomonas aeruginosa NCTC 13437.
In assay [18] the test system is Acinetobacter baumannii ATCC 17978.
Assay [19] concerns Batrachochytrium dendrobatidis.
Assay [20] concerns Staphylococcus epidermidis ATCC 12228.
The subject of assay [21] is Bacillus subtilis ATCC 23857.
For assay [22], the system named is Cronobacter sakazakii ATCC 29544.
Assay [23] relates to Staphylococcus aureus ATCC 25923.
Assay [24] relates to Staphylococcus aureus ATCC 33591.
In assay [25] the test system is Cryptococcus neoformans ATCC 24067.
For assay [26], the system named is Cryptococcus gattii ATCC 32608.
The test system of assay [27] is Escherichia coli ATCC 25922.
Assay [28] has as its system Acinetobacter baumannii ATCC 19606.
The subject of assay [29] is Candida krusei ATCC 20029.

Regarding `CC(=O)N[C@@H](CCC(=O)O)C(=O)N[C@@H](Cc1c[nH]c2ccccc12)C(=O)N[C@@H](CCCCN)C(=O)N[C@@H](CCCN=C(N)N)C(=O)N[C@@H](Cc1c[nH]c2ccccc12)C(=O)N[C@H](C(=O)N[C@@H](CCC(N)=O)C(=O)N[C@@H](CCCN=C(N)N)C(=O)N[C@@H](Cc1c[nH]c2ccccc12)C(=O)N[C@@H](CCCCN)C(=O)N[C@@H](CC(=O)O)C(=O)N[C@@H](Cc1c[nH]c2ccccc12)C(=O)N[C@@H](CC(C)C)C(=O)N[C@@H](CCCN=C(N)N)C(=O)N[C@@H](CC(N)=O)C(=O)N[C@@H](CC(C)C)C(=O)N[C@H](C(N)=O)C(C)C)C(C)C` [EWKRWVQRWKDWLRNLV], the MIC in assay [1] was found to be 10 µM (≈ 24.4 µg/mL); in assay [2] it was 10 µM (≈ 24.4 µg/mL); in [3], 5 µM (≈ 12.2 µg/mL); in assay [4] it was 10 µM (≈ 24.4 µg/mL); in assay [5], 5 µM (≈ 12.2 µg/mL).

As for `CC[C@H](C)[C@H](NC(=O)[C@H](C)NC(=O)[C@H](CCCCN)NC(=O)CNC(=O)[C@H](C)NC(=O)[C@H](CO)NC(=O)[C@H](Cc1ccccc1)NC(=O)[C@H](CC(C)C)NC(=O)CNC(=O)CNC(=O)[C@@H](NC(=O)[C@@H](NC(=O)[C@H](Cc1cnc[nH]1)NC(=O)[C@H](Cc1cnc[nH]1)NC(=O)[C@@H](NC(=O)[C@@H](N)Cc1ccccc1)[C@@H](C)CC)[C@@H](C)CC)[C@@H](C)CC)C(=O)N[C@@H](Cc1cnc[nH]1)C(=O)N[C@@H](CO)C(=O)N[C@@H](CC(C)C)C(=O)N[C@H](C(=O)N[C@@H](Cc1cnc[nH]1)C(=O)N[C@@H](CCCN=C(N)N)C(=O)N[C@@H](CCCN=C(N)N)C(=O)N[C@@H](CCCN=C(N)N)C(=O)N[C@@H](CCCN=C(N)N)C(=O)O)[C@@H](C)CC` [FIHHIIGGLFSAGKAIHSLIHRRRR], the MIC in assay [1] came out at 88.5 µM (≈ 256 µg/mL); against Staphylococcus aureus MR, 11.1 µM (≈ 32 µg/mL); in the assay with Candida albicans, 88.5 µM (≈ 256 µg/mL); in assay [6] it was 11.1 µM (≈ 32 µg/mL).

For `NCCCC[C@H](NC(=O)[C@H](Cc1ccccc1)NC(=O)[C@H](CCCCN)NC(=O)[C@@H](N)Cc1ccccc1)C(=O)N[C@@H](Cc1ccccc1)C(N)=O` [FKFKF], the MIC in assay [7] and in [8] was no less than 179 µM in each case.

Consider `CC[C@H](C)[C@H](NC(=O)[C@H](CC(=O)O)NC(=O)[C@H](Cc1ccccc1)NC(=O)[C@H](CC(C)C)NC(=O)CN)C(=O)N[C@H](C(=O)N[C@@H](CCCCN)C(=O)N[C@@H](CCCCN)C(=O)N[C@H](C(=O)N[C@H](C(=O)NCC(=O)N[C@@H](C)C(=O)N[C@@H](Cc1ccccc1)C(=O)NCC(=O)N[C@@H](CO)C(=O)N[C@@H](CC(C)C)C(N)=O)C(C)C)C(C)C)C(C)C` [GLFDIVKKVVGAFGSL], for which the MIC against Escherichia coli was greater than 60.6 µM; in [9], no less than 38.8 µM; in assay [10], 27.4 µM (≈ 45.2 µg/mL); in assay [11], no less than 38.8 µM; against Pasteurella multocida it was no less than 60.6 µM; against Bacillus cereus C737, no less than 77.6 µM. For the same compound, the MIC in the assay on Bacillus cereus was 30.3 µM (≈ 50 µg/mL); in [12], 9.7 µM (≈ 16 µg/mL); in assay [13], no less than 60.6 µM; in [14], 9.7 µM (≈ 16 µg/mL); in the assay on Micrococcus luteus it was no less than 60.6 µM; in assay [15], 4.85 µM (≈ 8 µg/mL). The MIC in assay [16] is greater than 77.6 µM; in assay [17], no less than 77.6 µM; against Listeria innocua, 30.3 µM (≈ 50 µg/mL); against Escherichia coli UB1005, no less than 38.8 µM; against Staphylococcus aureus 15, 19.4 µM (≈ 32 µg/mL); in [18], 4.85 µM (≈ 8 µg/mL). Moreover, the MIC with Streptococcus uberis is no less than 60.6 µM; against Staphylococcus aureus, 30.3 µM (≈ 50 µg/mL); in the assay with Leuconostoc lactis, 7.27 µM (≈ 12 µg/mL).

On to `CC[C@H](C)[C@H](NC(=O)[C@H](CC(=O)O)NC(=O)[C@H](CC(C)C)NC(=O)[C@H](CC(C)C)NC(=O)CN)C(=O)N[C@H](C(=O)N[C@@H](CCCCN)C(=O)N[C@@H](CCCCN)C(=O)N[C@H](C(=O)N[C@H](C(=O)NCC(=O)N[C@@H](C)C(=O)N[C@@H](Cc1ccccc1)C(=O)NCC(=O)N[C@@H](CO)C(=O)N[C@@H](CC(C)C)C(N)=O)C(C)C)C(C)C)C(C)C` [GLLDIVKKVVGAFGSL], for which the MIC in the assay with Escherichia coli was greater than 61.9 µM; with Pasteurella multocida, no less than 61.9 µM; in the assay with Bacillus cereus, 30.9 µM (≈ 50 µg/mL); in assay [13], 30.9 µM (≈ 50 µg/mL); with Micrococcus luteus, no less than 61.9 µM; in assay [19], no less than 200 µM. For the same compound, the MIC against Listeria innocua is 3.71 µM (≈ 6 µg/mL); with Streptococcus uberis it was no less than 61.9 µM; against Staphylococcus aureus, greater than 61.9 µM; with Leuconostoc lactis it was 3.71 µM (≈ 6 µg/mL).

In the case of `CC[C@H](C)[C@H](N)C(=O)N[C@@H](CC(C)C)C(=O)NCC(=O)N[C@H](C(=O)N[C@H](C(=O)N[C@@H](CC(C)C)C(=O)NCC(=O)N[C@@H](CC(C)C)C(=O)N[C@@H](CC(C)C)C(=O)N[C@@H](CCCCN)C(=O)N[C@@H](Cc1ccccc1)C(=O)N[C@@H](CC(C)C)C(N)=O)[C@@H](C)CC)[C@@H](C)O` [ILGTILGLLKFL], the MIC in [20] is 2 µM (≈ 2.6 µg/mL); in assay [21], 4 µM (≈ 5.2 µg/mL); in assay [22], no less than 256 µM; in [23] it was 4 µM (≈ 5.2 µg/mL); in assay [4] it was 4 µM (≈ 5.2 µg/mL).

On to `CC[C@H](C)[C@H](NC(C)=O)C(=O)N[C@@H](Cc1c[nH]c2ccccc12)C(=O)N[C@@H](CC(C)C)C(=O)N[C@H](C(=O)N[C@@H](CCCCN)C(=O)N[C@@H](C)C(=O)N[C@@H](CC(C)C)C(=O)N[C@@H](CCCCN)C(=O)N[C@@H](Cc1ccccc1)C(=O)N[C@@H](CC(C)C)C(=O)NCC(=O)N[C@@H](CCCCN)C(=O)N[C@@H](CC(N)=O)C(=O)N[C@@H](CC(C)C)C(=O)NCC(=O)N[C@@H](CCCCN)C(N)=O)[C@@H](C)O` [IWLTKALKFLGKNLGK], for which the MIC in assay [1] came out at 24.2 µM (≈ 45.2 µg/mL); in assay [20], 2.13 µM (≈ 3.99 µg/mL); in assay [24], 4.27 µM (≈ 7.99 µg/mL); in assay [25] it was 8.55 µM (≈ 16 µg/mL); in assay [26], 3.38 µM (≈ 6.33 µg/mL); in assay [27], 3.01 µM (≈ 5.63 µg/mL). Also, the MIC in assay [28] was determined as 2.68 µM (≈ 5.02 µg/mL); in assay [29], 30.5 µM (≈ 57 µg/mL).
